Test results as given in patent USRE41614E1, “Synthetic analogs of ecteinascidin-743” (President and Fellows of Harvard College, priority 1998, dated 2010).
≈ marks a conversion by molar mass, not a printed value. Like-named read-outs stand apart in the source and are kept apart here.

Tests used:
Type in all cases: cell-based
[1] = system: A-549 (Lung) human cancer cell line; experiment: In vitro anti-tumor screen, cancer cell antiproliferative assay, A-549
Experimental: (§1) The following tables summarize the activity of all the synthetic derivatives. […] Lower values represent higher activity.
(§2) ^9 Cancer cell antiproliferative assays were performed by Dr. Takashi Owa, a postdoctoral fellow in the Stuart L. Schreiber research group.

[2] = system: PC-3 (Prostate) human cancer cell line; experiment: In vitro anti-tumor screen, cancer cell antiproliferative assay, PC-3; conditions: for IC50: Homo sapiens
Experimental: as §1, §2

[3] = system: HCT116 (Colon) human cancer cell line; experiment: In vitro anti-tumor screen, cancer cell antiproliferative assay, HCT116
Experimental: as §1, §2

[4] = system: A375 (Melanoma) human cancer cell line; experiment: In vitro anti-tumor screen, cancer cell antiproliferative assay, A375; conditions: for IC50: Homo sapiens
Experimental: as §1, §2

[5] = A549, Table 8, additional biological data, first value of cell, read-out: IC50 (ng/mL) Lung
[6] = Table 8, additional biological data, fourth value of cell, read-out: IC50 (ng/mL) Prost.
[7] = HCT-116, Table 8, additional biological data, second value of cell, read-out: IC50 (ng/mL) Colon
[8] = A-375, Table 8, additional biological data, third value of cell, read-out: IC50 (ng/mL) Melan.
[9] = A549, Table 6, A-ring substitution at X2, lung, read-out: IC50 A-549
[10] = Table 5, B-ring substitution at X1, lung, >100 ng/mL considered inactive, read-out: IC50 A-549
[11] = Table 5, B-ring substitution at X1, prostate, >100 ng/mL considered inactive, read-out: IC50 PC-3
[12] = HCT-116, Table 5, B-ring substitution at X1, colon, >100 ng/mL considered inactive, read-out: IC50 HCT-116
[13] = HCT-116, Table 6, A-ring substitution at X2, colon, read-out: IC50 HCT 116
[14] = A-375, Table 5, B-ring substitution at X1, melanoma, >100 ng/mL considered inactive, read-out: IC50 A375
[15] = Table 6, A-ring substitution at X2, prostate, read-out: IC50 PC-3
[16] = A-375, Table 6, A-ring substitution at X2, melanoma, read-out: IC50 A375

| SMILES | IC50 [1, 5] [ng/mL] | IC50 [2, 6] [ng/mL] | IC50 [3, 7] [ng/mL] | IC50 [4, 8] [ng/mL] | IC50 [1, 10] [ng/mL] | IC50 [2, 11] [ng/mL] | IC50 [3, 12] [ng/mL] | IC50 [4, 14] [ng/mL] | other results |
| --- | --- | --- | --- | --- | --- | --- | --- | --- | --- |
| COC1=C(C)C(=O)C2=C(C1=O)[C@@H]1[C@@H]3Cc4c(OC(C)=O)c(C)c5c(c4[C@H](CN4C(=O)c6ccccc6C4=O)N3[C@@H](C#N)[C@H](C2)N1C)OCO5 | 1.1 (≈ 1.65 nM) | 0.45 (≈ 0.677 nM) | 0.53 (≈ 0.797 nM) | 0.3 (≈ 0.451 nM) | – | – | – | – | – |
| COCOc1c(OC)c(C)cc2c1[C@@H]1[C@@H]3Cc4c(OC(C)=O)c(C)c5c(c4[C@H](CN4C(=O)c6ccccc6C4=O)N3[C@@H](C#N)[C@H](C2)N1C)OCO5 | 160 (≈ 230 nM) | 68 (≈ 97.9 nM) | 51 (≈ 73.4 nM) | 46 (≈ 66.2 nM) | – | – | – | – | – |
| COc1c(C)cc2c(c1O)[C@H]1N[C@@H](C2)[C@H](C#N)N2[C@@H](CN3C(=O)c4ccccc4C3=O)c3c(c(OC(C)=O)c(C)c4c3OCO4)C[C@@H]12 | 21 (≈ 33 nM) | 3.3 (≈ 5.18 nM) | 3.5 (≈ 5.5 nM) | 1.9 (≈ 2.98 nM) | – | – | – | – | – |
| COc1c(C)cc2c(c1OC(C)=O)[C@@H]1[C@@H]3Cc4c(OC(C)=O)c(C)c5c(c4[C@H](CN4C(=O)c6ccccc6C4=O)N3[C@@H](C#N)[C@H](C2)N1C)OCO5 | 40 (≈ 57.7 nM) | 17 (≈ 24.5 nM) | 20 (≈ 28.9 nM) | 8.3 (≈ 12 nM) | – | – | – | – | – |
| COc1c(C)c(Br)c2c(c1O)[C@@H]1[C@@H]3Cc4c(OC(C)=O)c(C)c5c(c4[C@H](CN4C(=O)c6ccccc6C4=O)N3[C@@H](C#N)[C@H](C2)N1C)OCO5 | 4.7 (≈ 6.44 nM) | 2 (≈ 2.74 nM) | 1.3 (≈ 1.78 nM) | 0.47 (≈ 0.644 nM) | – | – | – | – | – |
| COc1c(C)cc2c(c1O)[C@@H]1[C@@H]3Cc4c(O)c(C)c5c(c4[C@H](CNC(=O)Cc4ccc(OC(C)=O)cc4)N3[C@@H](C#N)[C@H](C2)N1C)OCO5 | > 100 | > 100 | > 100 | > 100 | – | – | – | – | – |
| COc1c(C)cc2c(c1O)[C@@H]1[C@@H]3CC4=C(C(=O)C(O)=C(C)C4=O)[C@H](CN4C(=O)c5ccccc5C4=O)N3[C@@H](C#N)[C@H](C2)N1C | 48 (≈ 80.7 nM) | 9 (≈ 15.1 nM) | 13 (≈ 21.9 nM) | 2.1 (≈ 3.53 nM) | – | – | – | – | – |
| COc1c(C)cc2c(c1O)[C@@H]1[C@@H]3Cc4c(OC(C)=O)c(C)c5c(c4[C@H](CN4C(=O)c6ccccc6C4=O)N3[C@@H](C#N)[C@H](C2)N1C)OCO5 | 0.67 (≈ 1.03 nM) | 0.34 (≈ 0.523 nM) | 0.39 (≈ 0.599 nM) | 0.13 (≈ 0.2 nM) | – | – | – | – | – |
| COc1c(C)c(Cl)c2c(c1O)[C@@H]1[C@@H]3Cc4c(OC(C)=O)c(C)c5c(c4[C@H](CN4C(=O)c6ccccc6C4=O)N3[C@@H](C#N)[C@H](C2)N1C)OCO5 | 1.9 (≈ 2.77 nM) | 0.73 (≈ 1.07 nM) | 0.7 (≈ 1.02 nM) | 0.24 (≈ 0.35 nM) | – | – | – | – | – |
| COC1=C(C)C(=O)C2=C(C1=O)[C@H](CN1C(=O)c3ccccc3C1=O)N1[C@@H](C#N)[C@@H]3Cc4cc(C)c(OC)c(O)c4[C@H]([C@@H]1C2)N3C | > 100 | 22 (≈ 36.1 nM) | 24 (≈ 39.4 nM) | 9 (≈ 14.8 nM) | – | – | – | – | – |
| COc1c(C)cc2c(c1O)[C@@H]1[C@@H]3Cc4c(OC(C)=O)c(C)c5c(c4[C@H](CN4C(=O)c6ccccc6C4=O)N3[C@@H](C#N)[C@H](C2)N1C)OCO5 [Compound 7] | – | – | – | – | 0.62 (≈ 0.953 nM) | 0.36 (≈ 0.553 nM) | 0.25 (≈ 0.384 nM) | 0.11 (≈ 0.169 nM) | IC50 [1, 9]: 0.62 ng/mL (≈ 0.953 nM); IC50 PC-3 ([2]; Table 6, A-ring substitution at X2, prostate): 0.36 ng/mL (≈ 0.553 nM); IC50 [3, 13]: 0.25 ng/mL (≈ 0.384 nM); IC50 A375 ([4]; Table 6, A-ring substitution at X2, melanoma): 0.11 ng/mL (≈ 0.169 nM) |
| COc1c(C)cc2c(c1O)[C@@H]1[C@@H]3Cc4c(OC(C)=O)c(C)c5c(c4[C@H](CN4C(=O)c6ccc(N)cc6C4=O)N3[C@@H](C#N)[C@H](C2)N1C)OCO5 [Compound 20] | – | – | – | – | 14 (≈ 21 nM) | 2 (≈ 3 nM) | 2.1 (≈ 3.15 nM) | 0.79 (≈ 1.19 nM) | – |
| COc1c(C)cc2c(c1O)[C@@H]1[C@@H]3Cc4c(OC(C)=O)c(C)c5c(c4[C@H](COC(=O)Nc4ccccc4)N3[C@@H](C#N)[C@H](C2)N1C)OCO5 [Compound 22] | – | – | – | – | 4.5 (≈ 7.02 nM) | 2.6 (≈ 4.06 nM) | 2.3 (≈ 3.59 nM) | 1.9 (≈ 2.97 nM) | – |
| COc1c(C)cc2c(c1O)[C@@H]1[C@@H]3Cc4c(OC(C)=O)c(C)c5c(c4[C@H](CN4Cc6ccccc6C4=O)N3[C@@H](C#N)[C@H](C2)N1C)OCO5 [Compound 27] | – | – | – | – | 7.2 (≈ 11.3 nM) | 1.7 (≈ 2.67 nM) | 2.2 (≈ 3.46 nM) | 0.71 (≈ 1.12 nM) | – |
| COc1c(C)cc2c(c1O)[C@@H]1[C@@H]3Cc4c(OC(C)=O)c(C)c5c(c4[C@H](CN4C(=O)c6ccccc6C4O)N3[C@@H](C#N)[C@H](C2)N1C)OCO5 (some centres unmarked) [Compound 28] | – | – | – | – | 22 (≈ 33.7 nM) | 2.7 (≈ 4.14 nM) | 2.4 (≈ 3.68 nM) | 0.79 (≈ 1.21 nM) | – |
| COc1c(C)cc2c(c1O)[C@@H]1[C@@H]3Cc4c(OC(C)=O)c(C)c5c(c4[C@H](CN4C(=O)c6ccncc6C4=O)N3[C@@H](C#N)[C@H](C2)N1C)OCO5 [Compound 32] | – | – | – | – | 11 (≈ 16.9 nM) | 37 (≈ 56.8 nM) | 2.1 (≈ 3.22 nM) | 0.36 (≈ 0.552 nM) | – |
| COc1c(C)cc2c(c1O)[C@@H]1[C@@H]3Cc4c(OS(C)(=O)=O)c(C)c5c(c4[C@H](CN4C(=O)c6ccccc6C4=O)N3[C@@H](C#N)[C@H](C2)N1C)OCO5 [Compound 44] | – | – | – | – | – | – | – | – | IC50 ([1]; A549, read-out: IC50 A-549): 1.2 ng/mL (≈ 1.75 nM); IC50 ([2]; read-out: IC50 PC-3): 0.59 ng/mL (≈ 0.859 nM); IC50 ([3]; HCT-116, read-out: IC50 HCT 116): 0.4 ng/mL (≈ 0.582 nM); IC50 ([4]; A-375, read-out: IC50 A375): 0.2 ng/mL (≈ 0.291 nM) |
| C=CCOc1c(C)c2c(c3c1C[C@H]1[C@H]4c5c(cc(C)c(OC)c5O)C[C@@H]([C@H](C#N)N1[C@H]3CN1C(=O)c3ccccc3C1=O)N4C)OCO2 [Compound 45] | – | – | – | – | – | – | – | – | IC50 [1, 9]: 5.2 ng/mL (≈ 8.02 nM); IC50 [2, 15]: 3.1 ng/mL (≈ 4.78 nM); IC50 [3, 13]: 2.1 ng/mL (≈ 3.24 nM); IC50 [4, 16]: 0.98 ng/mL (≈ 1.51 nM) |
| COc1c(C)cc2c(c1O)[C@@H]1[C@@H]3Cc4c(O)c(C)c5c(c4[C@H](CN4C(=O)c6ccccc6C4=O)N3[C@@H](C#N)[C@H](C2)N1C)OCO5 [Compound 48] | – | – | – | – | – | – | – | – | IC50 [1, 9]: 30 ng/mL (≈ 49.3 nM); IC50 [2, 15]: 7.7 ng/mL (≈ 12.7 nM); IC50 [3, 13]: 6 ng/mL (≈ 9.86 nM); IC50 [4, 16]: 2.5 ng/mL (≈ 4.11 nM) |
| COc1c(C)cc2c(c1O)[C@@H]1[C@@H]3Cc4c(OC(C)=O)c(C)c5c(c4[C@H](CNC(=O)Cc4ccc(O)cc4)N3[C@@H](C#N)[C@H](C2)N1C)OCO5 [Compound 56] | – | – | – | – | > 100 | 24 (≈ 36.7 nM) | 20 (≈ 30.5 nM) | 6.5 (≈ 9.93 nM) | – |
| COc1c(C)cc2c(c1O)[C@@H]1[C@@H]3Cc4c(OC(C)=O)c(C)c5c(c4[C@H](CNC(=O)c4ccccc4)N3[C@@H](C#N)[C@H](C2)N1C)OCO5 [Compound 63] | – | – | – | – | – | – | – | – | IC50 ([1]; A549, read-out: IC50 Lung): 2 ng/mL (≈ 3.2 nM); IC50 ([2]; read-out: IC50 Prostate): 0.4 ng/mL (≈ 0.64 nM); IC50 ([3]; HCT-116, read-out: IC50 Colon): 0.37 ng/mL (≈ 0.592 nM); IC50 ([4]; A-375, read-out: IC50 Melanoma): 0.22 ng/mL (≈ 0.352 nM) |
| CNC(=O)Oc1c(C)c2c(c3c1C[C@H]1[C@H]4c5c(cc(C)c(OC)c5O)C[C@@H]([C@H](C#N)N1[C@H]3CN1C(=O)c3ccccc3C1=O)N4C)OCO2 [Compound 66] | – | – | – | – | – | – | – | – | IC50 ([1]; A549, Table 7, additional analogs, read-out: IC50 Lung): 8.6 ng/mL (≈ 12.9 nM); IC50 ([2]; Table 7, additional analogs, read-out: IC50 Prostate): 2.1 ng/mL (≈ 3.15 nM); IC50 ([3]; HCT-116, Table 7, additional analogs, read-out: IC50 Colon): 1.3 ng/mL (≈ 1.95 nM); IC50 ([4]; A-375, Table 7, additional analogs, read-out: IC50 Melanoma): 0.92 ng/mL (≈ 1.38 nM) |
